From US8507475B2, “Substituted heteroarylamide diazepinopyrimidone derivatives” (Sanofi, priority 2008, dated 2013)
Where a name gives a salt, the structure may show the parent alone.

What was measured:
[1] = molecular target: GSK3β (Homo sapiens, UniProt P49841); experiment: Inhibitory activity against GSK3β (33P-ATP phosphorylation of prephosphorylated GS1 peptide); format: biochemical; settings: protocol 4: commercial GSK3beta (Millipore), 7.5 μM GS1 peptide, 10 μM ATP, 50 mM Hepes pH 7.2, 90 minutes at room temperature
Method: Four different protocols can be used. In a first protocol: 7.5 μM of prephosphorylated GS1 peptide and 10 μM ATP (containing 300,000 cpm of ^33P-ATP) were incubated in 25 mM Tris-HCl, pH 7.5, 0.6 mM DTT, 6 mM MgCl2, 0.6 mM EGTA, 0.05 mg/ml BSA buffer for 1 hour at room temperature in the presence of GSK3beta (total reaction volume: 100 microliters). In a second protocol: 4.1 μM of prephosphorylated GS1 peptide and 42 μM ATP (containing 260,000 cpm ^33P-ATP) were incubated in 80 mM Mes-NaOH, pH 6.5, 1 mM Mg acetate, 0.5 mM EGTA, 5 mM 2-mercaptoethanol, 0.02% Tween 20, 10% glycerol buffer for 2 hours at room temperature in the presence of GSK3beta. In a third protocol: 7.5 μM of prephosphorylated GS1 peptide and 10 μM ATP (containing 300,000 cpm of ^33P-ATP) were incubated in 50 mM Hepes, pH 7.2, 1 mM DTT, 1 mM MgCl2, 1 mM EGTA, 0.01% Tween 20 buffer for one hour at room temperature in the presence of GSK3beta (total reaction volume: 100 microliters). In a fourth protocol: 7.5 μM of prephosphorylated GS1 peptide and 10 μM ATP (containing 300,000 cpm of ^33P-ATP) were incubated in 50 mM Hepes, pH 7.2, 1 mM DTT, 1 mM MgCl2, 1 mM EGTA, 0.01% Tween 20 buffer for 90 minutes at room temperature in the presence of commercial GSK3beta (Millipore) (total reaction volume: 100 microliters). Inhibitors were solubilised in DMSO (final solvent concentration in the reaction medium, 1%). The reaction was stopped with 100 microliters of a solution made of 25 g polyphosphoric acid (85% P2O5), 126 ml 85% H3PO4, H2O to 500 ml and then diluted to 1:100 before use. An aliquot of the reaction mixture was then transferred to Whatman P81 cation exchange filters and rinsed with the solution described above. Incorporated ^33P radioactivity was determined by liquid scintillation spectrometry. The phosphorylated GS-1 peptide had the following sequence: NH2-[…](P)EDEE-COOH. (Woodgett, J. R. (1989) Analytical Biochemistry 180, 237-241.

Sequence of GSK3β (P49841 whole entry): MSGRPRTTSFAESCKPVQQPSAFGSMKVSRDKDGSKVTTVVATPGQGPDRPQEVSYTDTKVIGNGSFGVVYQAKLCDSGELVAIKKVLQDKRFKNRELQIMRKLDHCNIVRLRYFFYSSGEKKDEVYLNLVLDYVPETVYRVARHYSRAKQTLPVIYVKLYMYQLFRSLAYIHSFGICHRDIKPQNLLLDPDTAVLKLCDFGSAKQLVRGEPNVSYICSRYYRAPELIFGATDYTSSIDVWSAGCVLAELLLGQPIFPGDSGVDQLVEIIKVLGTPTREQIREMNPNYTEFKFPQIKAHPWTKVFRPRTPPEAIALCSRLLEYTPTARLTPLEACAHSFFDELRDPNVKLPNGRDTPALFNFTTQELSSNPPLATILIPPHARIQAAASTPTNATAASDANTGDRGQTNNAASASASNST

Compound | melting point | IC50 [1]
O=C(NC1CNCCn2c1nc(-c1ccncc1)cc2=O)c1cc(F)cc2c1OCOC2 (racemic) [Compound No. 26, (+/−)-6-Fluoro-4H-benzo[1,3]dioxine-8-carboxylic acid (4-oxo-2-pyridin-4-yl-4,5,6,7,8,9-hexahydro-1,4a,7-triaza-benzocyclohepten-9-yl)-amide] |  | 12 nM
O=C(NC1CNCCn2c1nc(-c1ccncc1)cc2=O)c1cc(F)cc2c1OCOC2 (racemic) (as salt: HCl) [Compound No. 26, (+/−)-6-Fluoro-4H-benzo[1,3]dioxine-8-carboxylic acid (4-oxo-2-pyridin-4-yl-4,5,6,7,8,9-hexahydro-1,4a,7-triaza-benzocyclohepten-9-yl)-amide] | 232 to 234 °C | 
CN1CCn2c(nc(-c3ccncn3)cc2=O)C(NC(=O)c2cc(Cl)c(N)c3c2OCCO3)C1 (racemic) [compound 22, (+/−)-8-Amino-7-chloro-2,3-dihydro-benzo[1,4]dioxine-5-carboxylic acid (7-methyl-4-oxo-2-pyrimidin-4-yl-4,5,6,7,8,9-hexahydro-1,4a,7-triaza-benzocyclohepten-9-yl)-amide] | 169 to 171 °C | 47 nM

The remaining compounds from weak to strong by IC50 [1], led by results:

melting point | IC50 [1] | Compound
284 to 286 °C | 109 nM | CCOC(=O)N1CCn2c(nc(-c3ccncc3)cc2=O)C(NC(=O)c2cccc3c2OCC3)C1 (racemic) [compound 8, (+/−)-9-[(2,3-Dihydro-benzofuran-7-carbonyl)-amino]-4-oxo-2-pyridin-4-yl-5,6,8,9-tetrahydro-4H-1,4-a,7-thaza-benzocycloheptene-7-carboxylic acid ethyl ester]
284 to 286 °C | 73 nM | CCOC(=O)N1CCn2c(nc(-c3ccncn3)cc2=O)C(NC(=O)c2ccc3ncccc3n2)C1 (racemic) [Compound No. 1, (+/−)-9-[([1,5]Naphthyridine-2-carbonyl)-amino]-4-oxo-2-pyrimidin-4-yl-5,6,8,9-tetrahydro-4H-1,4a,7-triaza-benzocycloheptene-7-carboxylic acid ethyl ester]
